Measurements published in patent publication US11135326B2, “Storage-stable aqueous solutions of chlorine dioxide and methods for preparing and using them” (CDG ENVIRONMENTAL, LLC, priority 2005, dated 2021).

Tests used:
[1] = cited from earlier work
[2] = Storage stability of aqueous chlorine dioxide solutions, concentration measured by amperometric titration
Description: To determine the impact of various contaminants, the inventors set up a series of experiments to test the effect of the contaminants at various concentrations.
Pure water containing less than 1 ppm solid impurities was used to dissolve the chlorine dioxide gas and form the aqueous chlorine dioxide solutions at a concentration of 3000 ppm+/−5% chlorine dioxide as the initial starting concentration. The data in the figures is reported as % of starting concentration unless otherwise noted.
All data on concentration of aqueous solutions were measured by amperometric titration as described in EPA Standard Methods. Serial dilution was used to adjust to the range of the analytical device.
The accuracy of the analytical technique used is ±3%. Any variation of less than 3% is not considered significant.

[O][Cl+][O-] [chlorine dioxide]
minimum decomposition rate ([1]; pH of 4.85 to 3.90, U.S. 2002/0037248): 0.6 % per hour
strength lost ([1]; within 24 hours, U.S. Pat. No. 7,229,647): 80-90%
loss of concentration (in words) ([2]; 1500-6000 ppm of salt, even at room temperature, compared with about 100 ppm or less): much higher
rate of deterioration (in words) ([2]; 3000 ppm, alkali metal salts at 100 ppm, 40° C.): deteriorate at a much higher rate
lose % of their concentration ([2]; 3000 ppm, less than 10 ppm alkali metal salts, about 100 days, temperatures up to 40° C.): less than 10%
shelf life (in words) ([2]; FIG. 2, 4500 ppm starting concentration, distilled water, amber glass bottles, 10° C. to about 40° C.): commercially acceptable shelf life
retains % of its starting concentration ([2]; FIG. 2, pure chlorine dioxide at about 3000 ppmw in pure water, 40° C., more than 90 days): ≥ 90%
stability in PET bottles (in words) ([2]; FIG. 4, distilled water, 750 mL biaxially oriented PET bottles, after an initial rapid rate of loss): almost as stable as that stored in glass
stability (in words) ([2]; FIG. 5, 25° C. and up to 100 ppm NaCl): equally stable within the margin of error
rate of deterioration (in words) ([2]; FIG. 5, 100 ppm Na+ and 40° C.): deteriorated at a markedly higher rate
effect of manganese ions on storage stability (in words) ([2]; FIG. 10, 3000 ppm initial, small amounts of manganese ions (e.g., 10 ppm)): greatly diminish the storage stability
shelf life of refrigerated solutions ([2]; refrigerated, inferred from FIG. 2 data): about a year or more
